Data reported in publication PMC6669600 (Viruses, 2019).

What was measured:
[1] = target: N36 (gp41 NHR-derived target mimic peptide) (Human immunodeficiency virus type 1 group M subtype B, UniProt P04578); experiment: CD spectroscopy of inhibitor complexed with N36; format: binding, HIV-1; settings: α-helical content of complex, each peptide 10 μM in PBS pH 7.2, 20 C, [θ]222; repeated two times, representative data
[2] = target: T1, N39 (gp41 NHR-derived target mimic peptide) (Human immunodeficiency virus type 1 group M subtype B, UniProt P04578); experiment: CD spectroscopy of inhibitor complexed with N39; format: binding, HIV-1; settings: each peptide 10 μM in PBS, repeated two times, representative data
T1 construct: we further used the NHR-derived peptide N39
T1 sequence (P04578 528-566): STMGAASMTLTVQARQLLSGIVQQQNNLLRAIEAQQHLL

N36 (gp41 NHR-derived target mimic peptide), sequence (P04578 546-581): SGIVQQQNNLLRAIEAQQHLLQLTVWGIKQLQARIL

| Substance | CD data (with N36) Helix (%) [1] [%] | α-helical content of complex with N39 [2] [%] |
| --- | --- | --- |
| Ac-MTWEEWDKKIEEYTKKIEELIKKSEEQQ-NH2 [MT-SC26EK] | 85.2 | – |
| Ac-WEEWDKKIEEYTKKIEELIKKSE-NH2 [SC23EK] | 80.7 | – |
| Ac-WEEWDKKIEEYTKKIEELIKKSEEQ-NH2 [SC25EK] | 78.4 | – |
| Ac-MTWEEWDKKIEEYTKKIEELIKKSEEQQKKNEKELK-NH2 [MT-SC34EK] | 92 | – |
| Ac-WEEWDRKIEEYTKKIEELIKKSQNQQIDL-NH2 [WQ-IDL, reference compound] | 87.8 | – |
| Ac-WEEWDKKIEEYTKKIEELIKKSEEQQ-NH2 [SC26EK] | 83.1 | – |
| Ac-MTWEEWDKKIEEYTKKIEELIKKSEEQQKKNEK-NH2 [MT-SC31EK] | 92.4 | – |
| enfuvirtide | – | 53 |
| Ac-WEEWDKKIEEYTKKIEELIKKS-NH2 [SC22EK] | 85.5 | – |
| Ac-WEEWDKKIEEYTKKIEELIKKSEEQQKKNEKELK-NH2 [SC34EK, reference compound] | 92.6 | – |
| Ac-MTWEEWDRKIEEYTKKIEELIKKSQNQQEKN-NH2 [MT-WQ-EKN] | 90.6 | – |
| Ac-WEEWDKKIEEYTKKIEELIKKSEEQQKKNE-NH2 [SC30EK] | 92.9 | – |
| Ac-WEEWDKKIEEYTKKIEELIKK-NH2 [SC21EK] | 82.8 | – |
| Ac-WEEWDKKIEEYTKKIEELIKKSEEQQKKN-NH2 [SC29EK, reference compound] | 88.9 | – |
| Ac-WEEWDKKIEEYTKKIEELIKKSEEQQKKNEK-NH2 [SC31EK] | 91.4 | – |
| Ac-MTWEEWDKKIEEYTKKIEELIKKSEEQQK-NH2 [MT-SC27EK] | 87.4 | – |
| Ac-WEEWDKKIEEYTKKIEELIKKSEE-NH2 [SC24EK] | 79.9 | – |
| Ac-MTWEEWDKKIEEYTKKIEEL-NH2 [MT-SC18EK] | 56.3 | – |
| Ac-MTWEEWDKKIEEYTKKIEELIKKSEEQQKKNEKEL-NH2 [MT-SC33EK] | 93.8 | – |
| Ac-MTWEEWDRKIEEYTKKIEELIKKSQNQQIDL-NH2 [MT-WQ-IDL, reference compound] | 86.9 | – |

| Substance | CD data (with N36) Helix (%) [1] [%] | α-helical content of complex with N39 [2] [%] |
| --- | --- | --- |
| Ac-WEEWDKKIEEYTKKIEELIK-NH2 [SC20EK] | 78.8 | – |
| Ac-MTWEEWDKKIEEYTKKIEELIKKS-NH2 [MT-SC22EK] | 84.6 | – |
| Ac-WEEWDKKIEEYTKKIEELIKKSEEQQKKNEKEL-NH2 [SC33EK] | 94.1 | – |
| Ac-WEEWDRKIEEYTKKIEELIKKSQNQQEKN-NH2 [WQ-EKN] | 89.5 | – |
| Ac-MTWEEWDKKIEEYTKKIEELIKK-NH2 [MT-SC21EK] | 83.9 | – |
| Ac-MTWEEWDKKIEEYTKKIEELIKKSEEQQKK-NH2 [MT-SC28EK] | 84.5 | – |
| Ac-MTWEEWDKKIEEYTKKIEELIKKSEEQQKKNE-NH2 [MT-SC30EK] | 92.6 | – |
| Ac-WEEWDKKIEEYTKKIEELI-NH2 [SC19EK] | 80.3 | – |
| Ac-WEEWDKKIEEYTKKIEELIKKSEEQQK-NH2 [SC27EK] | 85.7 | – |
| Ac-MTWEEWDKKIEEYTKKIEELIKKSEEQ-NH2 [MT-SC25EK] | 84.9 | – |
| Ac-MTWEEWDKKIEEYTKKIEELIK-NH2 [MT-SC20EK] | 82 | – |
| Ac-MTWEEWDKKIEEYTKKIEELIKKSEE-NH2 [MT-SC24EK] | 83.8 | – |
| Ac-MTWEEWDKKIEEYTKKIEELIKKSEEQQKKN-NH2 [MT-SC29EK] | 92 | – |
| Ac-WEEWDKKIEEYTKKIEELIKKSEEQQKK-NH2 [SC28EK] | 87.7 | – |
| Ac-MTWEEWDKKIEEYTKKIEELIKKSEEQQKKNEKE-NH2 [MT-SC32EK] | 91.8 | – |
| Ac-WMEWDREINNYTSLIHSLIEESQNQQEKAEQELL-NH2 [C34N145A] | 81 | – |
| Ac-WEEWDKKIEEYTKKIEELIKKSEEQQKKNEKE-NH2 [SC32EK] | 93.2 | – |
| Ac-MTWEEWDKKIEEYTKKIEELI-NH2 [MT-SC19EK] | 84.8 | – |
| Ac-MTWEEWDKKIEEYTKKIEELIKKSE-NH2 [MT-SC23EK] | 84.1 | – |
